Drawing on BindingDB's records for doi:10.1021/acschembio.5b00398 (University of Oxford, 2015), this text covers IC50 for 1 molecule.

Some results are limits rather than exact numbers.

Test in all cases: EMSA
(Mobility shift assays separate free from complexed probe on a gel.)

Test [1] addresses Cyclin-dependent kinase 2 [A144C] (Homo sapiens, UniProt P24941, A144C). How it is done: (§1) First, 4.5 μL of 2× kinase solution was added to 0.05 μL of compound (maximum concentration 1.8 mM in 90% DMSO and 10% H2O). To allow for possible slow association, plates with type II inhibitors were incubated for 60 min at 30 °C. The assay started after the addition of 4.5 μL of 2× peptide with ATP and was run for 60 min at 30 °C, after which 16 μL of stop solution was added (100 mM HEPES pH 7.5, 5% DMSO, 0.1% coating reagent (Caliper Lifescience) 10 mM EDTA, pH 8.0, 0.015% BRIJ35). All reactions were performed in 50 mM HEPES, pH 7.5, 1 mM DTT, 0.02% Tween 20, 0.02% BSA, 10 mM betaglycerophosphate, 0.01 mM Na3VO4, 0.6% DMSO, and 2 μM peptide.

For test [2], the target named is Cyclin-dependent kinase 2 [F80T] (Homo sapiens, UniProt P24941, F80T). Here is the method: as §1
Test [3] deals with Cyclin-dependent kinase 2 [C118L,A144C] (Homo sapiens, UniProt P24941, A144C/C118L). How it is done:
as §1

Test [4] deals with Cyclin-dependent kinase 2 [C118I] (Homo sapiens, UniProt P24941, C118I). How it is done:
as §1

Test [5] concerns the target Cyclin-dependent kinase 2 [C118L] (Homo sapiens, UniProt P24941, C118L). How it is done: as §1
Test [6] deals with Cyclin-dependent kinase 2 [A144G] (Homo sapiens, UniProt P24941, A144G). How it is done: as §1
In test [7] the target is Cyclin-dependent kinase 2 (Homo sapiens, UniProt P24941). Here is the method:
as §1

In test [8] the target is Cyclin-dependent kinase 2 [F80M] (Homo sapiens, UniProt P24941, F80M). How it is done: as §1

The term IC50 denotes the concentration at which inhibition is half-maximal. Read a high IC50 as lower potency. With `CC(=O)Nc1cc(Oc2ccc3c(C(=O)Nc4ccc(CN5CCN(C)CC5)c(C(F)(F)F)c4)cccc3c2)ncn1` [K03859 (2)], the IC50 in test [1] was > 10 µM; in test [2], 7.1 µM; in test [3] it was > 10 µM; in test [4], > 10 µM; in test [5], > 10 µM; in test [6], > 10 µM. Besides, the IC50 in test [7] and in test [8] was > 10 µM each time.
